Measured values as given in patent US4659728A, “Hydroxy substituted 4,5-diphenyl-2-oxazole propanoic acid” (American Home Products Corporation, priority 1985, dated 1987).

Key:
[1] = system: carrageenan paw edema in the rat; test: Rat carrageenan edema; type: in vivo, rat (male Sprague-Dawley); settings: 1 h before carrageenan, edema at 3 h, *p ≤ 0.01 from control
Protocol: (§1) The antiinflammatory utility of the compounds of this invention was established by standard procedures for evaluating antiinflammatory agents, namely, carrageenan paw edema in the rat and adjuvant arthritis (polyarthritis) in the rat. These procedures and the results obtained are summarized below:
(§2) Groups of 6 male Sprague-Dawley rats (Honey Brook), weighing between 140-160 g were used in these experiments. Drugs were administered p.o. in 0.5% methylcellulose (400 centipoise). One hour after administering drugs or vehicle, 0.1 ml of 1% carrageenan was injected subplantar into the right hind paw. Right paw volumes were measured prior to carrageenan injection in milliliters using a mercury plethysmograph (i.e., zero time reading). After 3 hours, right paw volumes were remeasured and paw edema was calculated for each rat by subtracting the zero time reading from the 3 hour reading. Percent change in paw edema was calculated.

[2] = system: adjuvant arthritis (polyarthritis) in the rat; test: Rat adjuvant arthritis; type: in vivo, rat (male Lewis); settings: oral dose 150 mg/kg, days 0 to 15 except weekends; *p ≤ 0.01 from control
Protocol: as §1
(§3) Groups of 10 male Lewis rats (Charles River), weighing between 150-170 g were injected s.c. into the right paw with desiccated Mycobacterium butyricum (0.5 mg/0.1 ml) suspended in light mineral oil. Drugs were administered orally in 0.5% methylcellulose. The following dosing regimen was used: days 0 to 15 except for weekends. Both hind paw volumes, in milliliters, were measured by mercury plethysmography at the time of injection of the complete adjuvant (day 0). Paw volumes were measured on day 4 (injected paw only) and on day 16 (uninjected paw). Drug effects were expressed as percentage change from arthritic controls.

inflammation = test: Antiinflammatory activity overall (standard procedures: carrageenan paw edema and adjuvant arthritis in the rat); type: in vivo; settings: compared with oxaprozin
Protocol: as §1, §2
as §3, with “Drugs were administered orally in 0.5% methylcellulose. The following dosing regimen was used: days 0 to 15 except for weekends.” left out, “Drug effects were expressed as percentage change from arthritic controls.” left out

| SMILES | % Inhibition of control paw edema ([1]; oral dose 150 mg/kg) [%] | % Inhibition of control uninjected paw edema at day 16 [2] [%] | effectiveness in inhibiting inflammation (inflammation) | % Inhibition of control paw edema ([1]; oral dose 200 mg/kg) [%] |
| --- | --- | --- | --- | --- |
| O=C(O)CCc1nc(-c2ccc(O)cc2)c(-c2ccccc2)o1 [Example 2, 4-(4-Hydroxyphenyl)-5-phenyl-2-oxazolepropanoic acid] | 46 | 30 | as effective as oxaprozin in inhibiting inflammation |  |
| O=C(O)CCc1nc(-c2ccccc2)c(-c2ccccc2)o1 [Oxaprozin, 4,5-diphenyl-2-oxazolepropanoic acid, reference compound] |  | 25 |  | 51 |
| O=C(O)CCc1nc(-c2ccccc2)c(-c2ccc(O)cc2)o1 [Example 1, 5-(4-hydroxyphenyl)-4-phenyl-2-oxazolepropanoic acid] | 43 | 36 | as effective as oxaprozin in inhibiting inflammation |  |
